In BigSolDB 2.1:

NS(=O)(=O)c1ccccc1
Details	solubility (mole fraction)
in acetone, 273.15 K	0.117
in acetone, 279.15 K	0.123
in acetone, 283.45 K	0.13
in acetone, 288.95 K	0.138
in acetone, 293.25 K	0.145
in acetone, 298.85 K	0.156
in acetone, 303.15 K	0.165
in acetone, 308.15 K	0.176
in acetone, 313.15 K	0.188
in acetone, 317.65 K	0.201
in acetone, 323.15 K	0.217
in acetonitrile, 273.15 K	0.0348
in acetonitrile, 279.15 K	0.0396
in acetonitrile, 283.45 K	0.0446
in acetonitrile, 288.95 K	0.0507
in acetonitrile, 293.25 K	0.0568
in acetonitrile, 298.85 K	0.0649
in acetonitrile, 303.15 K	0.0723
in acetonitrile, 308.15 K	0.0817
in acetonitrile, 313.15 K	0.0928
in acetonitrile, 317.65 K	0.104
in acetonitrile, 323.15 K	0.118
in cyclohexanone, 273.15 K	0.114
in cyclohexanone, 279.15 K	0.12
in cyclohexanone, 283.85 K	0.126
in cyclohexanone, 289.15 K	0.134
in cyclohexanone, 293.75 K	0.142
in cyclohexanone, 299.15 K	0.151
in cyclohexanone, 303.75 K	0.161
in cyclohexanone, 309.15 K	0.171
in cyclohexanone, 313.35 K	0.181
in cyclohexanone, 319.15 K	0.195
in cyclohexanone, 324.45 K	0.21
in cyclopentanone, 273.15 K	0.14
in cyclopentanone, 279.15 K	0.146
in cyclopentanone, 283.85 K	0.152
in cyclopentanone, 289.15 K	0.16
in cyclopentanone, 293.75 K	0.167
in cyclopentanone, 299.15 K	0.177
in cyclopentanone, 303.75 K	0.187
in cyclopentanone, 309.15 K	0.201
in cyclopentanone, 313.35 K	0.21
in cyclopentanone, 319.15 K	0.228
in cyclopentanone, 324.45 K	0.245
in dichloromethane, 273.15 K	0.00134
in dichloromethane, 279.15 K	0.00175
in dichloromethane, 283.45 K	0.00214
in dichloromethane, 288.95 K	0.00278
in dichloromethane, 293.25 K	0.00335
in dichloromethane, 298.85 K	0.00424
in dichloromethane, 303.15 K	0.00495
in dichloromethane, 308.15 K	0.00602
in dichloromethane, 312.15 K	0.00691
in ethanol, 273.15 K	0.0159
in ethanol, 279.15 K	0.0182
in ethanol, 283.45 K	0.0199
in ethanol, 288.95 K	0.0231
in ethanol, 293.25 K	0.0261
in ethanol, 298.85 K	0.0307
in ethanol, 303.15 K	0.0355
in ethanol, 308.15 K	0.041
in ethanol, 313.15 K	0.048
in ethanol, 317.65 K	0.0547
in ethanol, 323.15 K	0.0635
in ethyl acetate, 273.15 K	0.0325
in ethyl acetate, 279.15 K	0.036
in ethyl acetate, 283.45 K	0.0389
in ethyl acetate, 288.95 K	0.0429
in ethyl acetate, 293.25 K	0.0467
in ethyl acetate, 298.85 K	0.0517
in ethyl acetate, 303.15 K	0.0563
in ethyl acetate, 308.15 K	0.0615
in ethyl acetate, 313.15 K	0.0682
in ethyl acetate, 317.65 K	0.0736
in ethyl acetate, 323.15 K	0.082
in ethyl formate, 273.15 K	0.018
in ethyl formate, 279.15 K	0.0204
in ethyl formate, 283.45 K	0.0228
in ethyl formate, 288.95 K	0.026
in ethyl formate, 293.25 K	0.0289
in ethyl formate, 298.85 K	0.0327
in ethyl formate, 303.15 K	0.0367
in ethyl formate, 308.15 K	0.0416
in ethyl formate, 313.15 K	0.047
in ethyl formate, 317.65 K	0.0526
in ethyl formate, 323.15 K	0.0596
in isobutanol, 273.15 K	0.00387
in isobutanol, 279.15 K	0.0045
in isobutanol, 283.85 K	0.00537
in isobutanol, 289.15 K	0.00666
in isobutanol, 293.75 K	0.00808
in isobutanol, 299.15 K	0.00996
in isobutanol, 303.75 K	0.012
in isobutanol, 309.15 K	0.0148
in isobutanol, 313.35 K	0.0176
in isobutanol, 319.15 K	0.0214
in isobutanol, 324.45 K	0.0255
in isopentanol, 273.15 K	0.00419
in isopentanol, 279.15 K	0.00488
in isopentanol, 283.85 K	0.00557
in isopentanol, 289.15 K	0.00683
in isopentanol, 293.75 K	0.00804
in isopentanol, 299.15 K	0.00999
in isopentanol, 303.75 K	0.0119
in isopentanol, 309.15 K	0.0148
in isopentanol, 313.35 K	0.0172
in isopentanol, 319.15 K	0.021
in isopentanol, 324.45 K	0.0249
in isopropanol, 273.15 K	0.0076
in isopropanol, 279.15 K	0.00834
in isopropanol, 283.85 K	0.00964
in isopropanol, 289.15 K	0.0119
in isopropanol, 293.75 K	0.0141
in isopropanol, 299.15 K	0.0172
in isopropanol, 303.75 K	0.0213
in isopropanol, 309.15 K	0.0261
in isopropanol, 313.35 K	0.0305
in isopropanol, 319.15 K	0.0371
in isopropanol, 324.45 K	0.0444
in methanol, 273.15 K	0.0295
in methanol, 279.15 K	0.0325
in methanol, 283.45 K	0.0357
in methanol, 288.95 K	0.041
in methanol, 293.25 K	0.046
in methanol, 298.85 K	0.0536
in methanol, 303.15 K	0.061
in methanol, 308.15 K	0.0699
in methanol, 313.15 K	0.0808
in methanol, 317.65 K	0.0923
in methanol, 323.15 K	0.107
in methyl acetate, 273.15 K	0.0423
in methyl acetate, 279.15 K	0.0467
in methyl acetate, 283.45 K	0.0503
in methyl acetate, 288.95 K	0.0556
in methyl acetate, 293.25 K	0.0606
in methyl acetate, 298.85 K	0.0677
in methyl acetate, 303.15 K	0.0743
in methyl acetate, 308.15 K	0.0823
in methyl acetate, 313.15 K	0.0915
in methyl acetate, 317.65 K	0.101
in methyl acetate, 323.15 K	0.113
in n-butanol, 273.15 K	0.00578
in n-butanol, 279.15 K	0.00679
in n-butanol, 283.85 K	0.00798
in n-butanol, 289.15 K	0.00946
in n-butanol, 293.75 K	0.011
in n-butanol, 299.15 K	0.0135
in n-butanol, 303.75 K	0.016
in n-butanol, 309.15 K	0.0195
in n-butanol, 313.35 K	0.0226
in n-butanol, 319.15 K	0.0276
in n-butanol, 324.45 K	0.0323
in n-pentanol, 273.15 K	0.00474
in n-pentanol, 279.15 K	0.00538
in n-pentanol, 283.85 K	0.00616
in n-pentanol, 289.15 K	0.00727
in n-pentanol, 293.75 K	0.00894
in n-pentanol, 299.15 K	0.0111
in n-pentanol, 303.75 K	0.0131
in n-pentanol, 309.15 K	0.0164
in n-pentanol, 313.35 K	0.0188
in n-pentanol, 319.15 K	0.0232
in n-pentanol, 324.45 K	0.0278
in n-propanol, 273.15 K	0.00806
in n-propanol, 279.15 K	0.00907
in n-propanol, 283.85 K	0.0103
in n-propanol, 289.15 K	0.0122
in n-propanol, 293.75 K	0.0143
in n-propanol, 299.15 K	0.0175
in n-propanol, 303.75 K	0.0208
in n-propanol, 309.15 K	0.0254
in n-propanol, 313.35 K	0.0293
in n-propanol, 319.15 K	0.036
in n-propanol, 324.45 K	0.0423
